Assay results reported in US4604382A, “3'-amino-2',3'-dideoxycytidine and the pharmacologically acceptable salts thereof” (Research Corporation, priority 1983, dated 1986).
Values after ≈ are worked out from the molar mass of the structure shown. Read-outs that look alike come from different tables or passages of the source.

How the values were obtained:
[1] = test system: L1210 cells; type: cell-based, mouse
Description: (§1) Mouse L1210 and S-180 cells were maintained as suspension cultures in Fischer's medium supplemented with 10% horse serum at 37° C. in a humidified atmosphere of 5% CO2 -95% air. Under these conditions the generation time for L1210 and S-180 cells is approximately 12 and 18 hours, respectively. The test compound at the given concentration, was added to L1210 and S-180 cells (2×10^4 cells/mL) which were in their exponential phase of growth. The increase in cell number of the drug-free culture (control), as well as that of the cultures supplemented with the test compound, was determined after 24, 48 and 72 hours of growth.
(§2) At a 5 μM concentration of this compound the addition of 25 μM and 100 μM of 2'-deoxycytidine prevented the cytotoxicity of the novel compound against L1210 cells by 35% and 100% respectively.

[2] = test system: S-180 cells; type: cell-based, mouse; settings: 25 μM 2'-deoxycytidine added to 20 μM of the new compound
Description: as §1, §2

[3] = test system: cytotoxicity of the novel compound; type: cell-based; settings: in words
Description: as §2

[4] = test system: L1210 leukemia; experiment: L1210 leukemia in CDF1 mice, survival time (T/C); type: in vivo, mouse (CDF1 female mice); settings: 160 mg/kg i.p. twice a day for 3 days, starting 24 hours post inoculation of 1×10^5 L1210 cells
Description: Transplantation of L1210 ascites cells was carried out by withdrawing peritoneal fluid from donor CDF1 mice bearing 7-day growths. The suspension was centrifuged for 2 minutes (1600 g), the supernatant peritoneal fluid was decanted, and a 10-fold dilution with isotonic saline was made. The cell number was determined with a Coulter particle counter and the cell population was adjusted to 10^6 cells/mL. One-tenth mL of the resulting cell suspension (containing approximately 10^5 cells) was injected intraperitoneally into each animal. The drug was administered by intraperitoneal injection, beginning 24 hours after tumor implantation,twice daily for 3 consecutive days. The test compound was injected as a solution in isotonic saline. The drug was administered intraperitoneally in a volume of 0.25 mL. […] Mice were weighed during the course of the experiments, and the percentage change in body weight from onset to termination of therapy was used as an indication of drug toxicity. Determination of the sensitivity of ascitic neoplasms to this agent were based on the prolongation of survival time afforded by the drug treatments. The median survival time and the ratio of survival time for treated (T)/control (C) was calculated.
3'-Amino-2',3'-dideoxycytidine was screened against CDF1 female mice bearing L1210 leukemia according to the above protocol. Three groups of mice with 4 mice in each group were inoculated with 1×10^5 L1210 murine leukemia cells. Starting 24 hours post inoculation, the first group of mice was injected with saline as the vehicle control, the second group with 160 mg/kg of the test compound in saline twice a day, for 3 days. All control mice died by day 9. In the group treated with the test compound, one mouse died at day 21, the second at day 24, the third at day 29 and the last one at day 31, yielding a T/C×100 value of 283.

[5] = test system: L1210 cells; experiment: Inhibition of replication of L1210 cells in vitro; type: cell-based; settings: Mus musculus, mean cell counts after 72 hours, triplicate, read-out: ID50 (L1210)
Description: as §1
(§3) 3'-Amino-2',3'-dideoxycytidine was also screened against S-180 neoplastic cells in vitro. The ID50 values were estimated from dose-response curves compiled from at least two independent experiments and represent the drug concentration required to inhibit replication of L1210 or S-180 neoplastic cells by 50%.
(§4) ID50 values were determined from plots of mean cell counts after 72
(§5) hours. Assays were carried out in triplicate with appropriate controls.

[6] = Water solubility of the new compound; type: physicochemical; settings: at 23° C.
Description: The new compound has excellent water solubility (~0.5 g/mL at 23° C.) and readily forms non-toxic acid addition salts with a variety of pharmacologically acceptable organic and inorganic salt-formingreagents. Thus, acid addition salts formed by admixture of the organic free base with up to two equivalents of an acid, suitably in a neutral solvent, are formed with such acids as sulfuric, phosphoric, hydrochloric,hydrobromic, sulfamic, citric, lactic, malic, succinic, tartaric, acetic, benzoic, gluconic, ascorbic, and the like. For purposes of this invention, the free base is equivalent to the non-toxic acid addition salts. The acid addition salts are, in general, crystalline solids, very soluble in water, relatively soluble in methanol and ethanol but relatively insoluble in non-polar organic solvents such as diethyl ether, benzene, toluene, and the like.

[7] = test system: S-180 cells; experiment: Inhibition of replication of S-180 cells in vitro; type: cell-based; settings: Mus musculus, mean cell counts after 72 hours, triplicate, read-out: ID50 (S-180)
Description: as §1, §3, §4, §5

[8] = 4 mice, all controls died by day 9

In the case of `Nc1ccn([C@H]2C[C@H](O)[C@@H](CO)O2)c(=O)n1` [2'-deoxycytidine], the “prevention of the cytotoxicity of the novel compound against L1210 cells” value ([1]; 25 μM 2'-deoxycytidine added to 5 μM of the novel compound) is reported as 35%, the “prevention of the cytotoxicity of the novel compound against L1210 cells” value ([1]; 100 μM 2'-deoxycytidine added to 5 μM of the novel compound) is reported as 100% and the “preventive effect on the cytotoxicity of the novel compound against L1210 cells” value ([1]; dose dependence, in words) is reported as “dose dependent”. For the same compound, the “prevention of the cytotoxicity of the novel compound against S-180 cells” value [2] was 27% and the “prevention of the cytotoxicity of the novel compound” value [3] was “uniquely prevented”.
For `Nc1ccn([C@H]2C[C@H](N)[C@@H](CO)O2)c(=O)n1` [3'-amino-2',3'-dideoxycytidine, 3'-Amino-2',3'-dideoxycytidine], the “T/C×100 (survival time treated/control)” value [4] was 283, the “day of death, first mouse” value [4, 8] was 21 days and the “day of death, last mouse” value [4, 8] was 31 days. The “day of death, second mouse” value [4, 8] was 24 days, the “day of death, third mouse” value [4, 8] was 29 days and the IC50 [5] was 0.7 µM. The solubility [6] was about 500 mg/mL (≈ 2210 mM) and the IC50 [7] was 4 µM.
